These results are taken from patent publication US10947215B2, “Heteroaryl compounds and their use as therapeutic drugs” (Dong-A Socio Holdings Co., Ltd., priority 2015, dated 2021).

The test system of this assay is Ba/F3-CDM cells (Ba/F3 transfected with CD8-MerTK). As to the kind of experiment: In cell MER kinase assay, Ba/F3-CDM cell proliferation without IL-3 (Celltiter-Glo, GI50). The assay is classed as cell-based, murine. As to conditions: 48 hours, read-out: Cell growth inhibition (GI50). The essentials: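 Ba/F3 cells expressing CD8-MerTK were grown without IL-3, so that proliferation depends on MerTK. Cells were pre-incubated 24 h, then exposed to compound for 48 h. Viability was read by CellTiter-Glo, with IL-3-supplemented Ba/F3 run in parallel as a nonspecific cytotoxicity control, and GI50 was derived.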
For orientation: In ATP-based viability assays light output follows the ATP content of the culture.

Usually GI50 stands for the concentration at which growth is held to half of that of the control. Take `Cc1cccc(-c2cnc(N)c(C(=O)N[C@H]3CCC[C@@H]3OCc3ccc(-c4ccc(CN5CCN(C)CC5)cc4)cc3)c2)c1` [Example 370, 2-amino-N-((1S,2S)-2-((4′-((4-methylpiperazin-1-yl)methyl)-[1,1′-biphenyl]-4-yl)methoxy)cyclopentyl)-5-(m-tolyl)nicotinamide]: the GI50 is < 100 nM.
Take `CN1CCN(Cc2ccc(-c3ccc(CO[C@H]4CCC[C@@H]4NC(=O)c4cc(-c5ccccc5)cnc4N)cc3)cc2)CC1` [Example 371, 2-amino-N-((1S,2S)-2-((4′-((4-methylpiperazin-1-yl)methyl)-[1,1′-biphenyl]-4-yl)methoxy)cyclopentyl)-5-phenyl nicotinamide]: the GI50 is < 100 nM.
Take `CN1CCN(Cc2ccc(-c3ccc(CO[C@H]4CCC[C@@H]4NC(=O)c4cc(-c5ccc(O)cc5)cnc4N)cc3)cc2)CC1` [Example 372, 2-amino-5-(4-hydroxyphenyl)-N-((1S,2S)-2-((4′-((4-methyl-piperazin-1-yl)methyl)-[1,1′-biphenyl]-4-yl)methoxy)cyclopentyl)nicotinamide]: the GI50 is < 100 nM.
As for `CN1CCN(Cc2ccc(-c3ccc(CO[C@H]4CCC[C@@H]4NC(=O)c4cc(-c5cccnc5)cnc4N)cc3)cc2)CC1` [Example 375, 6-amino-N-((1S,2S)-2-((4′-((4-methylpiperazin-1-yl)methyl)-[1,1′-biphenyl]-4-yl)methoxy)cyclopentyl)-[3,3′-bipyridine]-5-carboxamide], the GI50 is < 100 nM.
With `COc1ccc(-c2cnc(N)c(C(=O)N[C@H]3CCC[C@@H]3OCc3ccc(-c4ccc(CN5CCN(C)CC5)cc4)cc3)c2)cc1` [Example 376, 2-amino-5-(4-methoxyphenyl)-N-((1S,2S)-2-((4′-((4-methyl-piperazin-1-yl)methyl)-[1,1′-biphenyl]-4-yl)methoxy)cyclopentyl)nicotinamide], the GI50 was < 100 nM.
`CN1CCN(Cc2ccc(-c3ccc(CO[C@H]4CCC[C@@H]4NC(=O)c4cc(-c5ccncc5)cnc4N)cc3)cc2)CC1` [Example 377, 6-amino-N-((1S,2S)-2-((4′-((4-methylpiperazin-1-yl)methyl)-[1,1′-biphenyl]-4-yl)methoxy)cyclopentyl)-[3,4′-bipyridine]-5-carboxamide]: the GI50 was < 100 nM.
For the molecule `CC1CCN(Cc2ccc(-c3cnc(N)c(C(=O)N[C@H]4CCC[C@@H]4OCc4ccc(-c5ccc(CN6CCN(C)CC6)cc5)cc4)c3)cc2)CC1` [Example 378, 2-amino-N-((1S,2S)-2-((4′-((4-methylpiperazin-1-yl)methyl)-[1,1′-biphenyl]-4-yl)methoxy)cyclopentyl)-5-(4-((4-methylpiperidin-1-yl)methyl)phenyl)-nicotinamide], the GI50 was < 100 nM.
The result for `CN1CCN(Cc2ccc(-c3ccc(CO[C@H]4CCC[C@@H]4NC(=O)c4cc(-c5ccc(CN6CCOCC6)cc5)cnc4N)cc3)cc2)CC1` [Example 379, 2-amino-N-((1S,2S)-2-((4′-((4-methylpiperazin-1-yl)methyl)-[1,1′-biphenyl]-4-yl)methoxy)cyclopentyl)-5-(4-(morpholinomethyl)phenyl)nicotinamide] reads < 100 nM; that for `CN1CCN(Cc2ccc(-c3ccc(CO[C@H]4CCC[C@@H]4NC(=O)c4cc(-c5cnn(C6CCOCC6)c5)cnc4N)cc3)cc2)CC1` [Example 380, 2-amino-N-((1S,2S)-2-((4′-((4-methylpiperazin-1-yl)methyl)-[1,1′-biphenyl]-4-yl)methoxy)cyclopentyl)-5-(1-(tetrahydro-2H-pyran-4-yl)-1H-pyrazol-4-vi)nicotinamide], < 100 nM; that for `CN1CCN(Cc2ccc(-c3ccc(CO[C@H]4CCC[C@@H]4NC(=O)c4cc(-c5ccc(N6CCOCC6)cc5)cnc4N)cc3)cc2)CC1` [Example 381, 2-amino-N-((1S,2S)-2-((4′-((4-methylpiperazin-1-yl)methyl)-[1,1′-biphenyl]-4-yl)methoxy)cyclopentyl)-5-(4-morpholinophenyl)nicotinamide], < 100 nM.
As for `COc1ccc(-c2cnc(N)c(C(=O)N[C@H]3CCC[C@@H]3OCc3ccc(-c4ccc(CN5CCN(C)CC5)cc4)cc3)c2)cc1OC` [Example 383, 2-amino-5-(3,4-dimethoxyphenyl)-N-((1S,2S)-2-((4′-((4-methyl-piperazin-1-yl)methyl)-[1,1′-biphenyl]-4-yl)methoxy)cyclopentyl)nicotinamide], the concentration for 50% growth inhibition (GI50) was < 100 nM.
In the case of `CN1CCN(Cc2ccc(-c3ccc(CO[C@H]4CCC[C@@H]4NC(=O)c4cc(-c5cc(F)nc(F)c5)cnc4N)cc3)cc2)CC1` [Example 384] it was < 100 nM; in that of `CN1CCN(Cc2ccc(-c3ccc(CO[C@H]4CCC[C@@H]4NC(=O)c4cc(-c5ccc(F)nc5)cnc4N)cc3)cc2)CC1` [Example 386, 6-amino-6′-fluoro-N-((1S,2S)-2-((4′-((4-methylpiperazin-1-yl)methyl)-[1,1′-biphenyl]-4-yl)methoxy)cyclopentyl)-[3,3′-bipyridine]-5-carboxamide], < 100 nM; in that of `CN1CCN(Cc2ccc(-c3ccc(CO[C@H]4CCC[C@@H]4NC(=O)c4cc(-c5cnn(C(F)(F)C(F)F)c5)cnc4N)cc3)cc2)CC1` [Example 387, 2-amino-N-((1S,2S)-2-((4′-((4-methylpiperazin-1-yl)methyl)-[1,1′-biphenyl]-4-yl)methoxy)cyclopentyl)-5-(1-(1,1,2,2-tetrafluoroethyl)-1H-pyrazol-4-yl)-nicotinamide], < 100 nM.
Consider `CCc1cc(CO[C@H]2CNC[C@@H]2NC(=O)c2cc(-c3ccc(C(N)=O)cc3)cnc2N)ccc1C` [Example 391, 2-amino-5-(4-carbamoylphenyl)-N-((3S,4S)-4-((3-ethyl-4-methylbenzyl)oxy)pyrrolidin-3-yl)nicotinamide], for which the GI50 is > 1000 nM.
In the case of `CCc1cc(CO[C@H]2CNC[C@@H]2NC(=O)c2cc(-c3cccnc3)cnc2N)ccc1C` [Example 396, 6-amino-N-((3S,4S)-4-((3-ethyl-4-methylbenzyl)oxy)pyrrolidin-3-yl)-[3,3′-bipyridine]-5-carboxamide], the GI50 was > 1000 nM.
As for `CCc1cc(CO[C@H]2CNC[C@@H]2NC(=O)c2cc(-c3ccc(NS(C)(=O)=O)cc3)cnc2N)ccc1C` [Example 401, 2-amino-N-((3S,4S)-4-((3-ethyl-4-methylbenzyl)oxy)pyrrolidin-3-yl)-5-(4-(methylsulfonamido)phenyl)nicotinamide], the GI50 is > 1000 nM.
In the case of `CCc1cc(CO[C@H]2CNC[C@@H]2NC(=O)c2cc(-c3cnn(C4CCNCC4)c3)cnc2N)ccc1C` [Example 412, 2-amino-N-((3S,4S)-4-((3-ethyl-4-methylbenzyl)oxy)pyrrolidin-3-yl)-5-(1-(piperidin-4-yl)-1H-pyrazol-4-yl)nicotinamide] it was > 1000 nM.
For `Cc1ccc(CO[C@H]2CNC[C@@H]2NC(=O)c2cc(-c3cnn(C)c3)cnc2N)cc1` [Example 415, 2-amino-5-(1-methyl-1H-pyrazol-4-yl)-N-((3S,4S)-4-((4-methylbenzyl)oxy)pyrrolidin-3-yl)nicotinamide], the GI50 is > 1000 nM.
With `CCc1cc(CO[C@H]2CNC[C@@H]2NC(=O)c2cc(-c3ccc(C(=O)NC4CCN(C)CC4)cc3)cnc2N)ccc1C` [Example 419, 2-amino-N-((3S,4S)-4-((3-ethyl-4-methylbenzyl)oxy)pyrrolidin-3-yl)-5-(4-((1-methylpiperidin-4-yl)carbamoyl)phenyl)nicotinamide], the GI50 is > 1000 nM.
